In patent publication US20030100540A1, “Identification of NSAID-regulated genes” (Vanderbilt University, priority 2001, published 2003):
Entries after “also recorded” stand apart in the source; their conditions may differ.

Columns and labels:
[1] = cited from earlier work
[2] = cited from earlier work; remark: listed apart in the source
[3] = system: HCA-7 cells; assay: Differential gene expression after NS-398 treatment (SSH, differential screening, Northern blotting); format: cell-based
Protocol: Cell culture. The HCA-7 cells, which are derived from a rectal carcinoma, were kindly provided by Dr. Susan Kirkland (ICRF, London, UK). Cells were cultured at 37° C. with 5% CO2 in McCoy's 5A medium containing penicillin, streptomycin, 10% FBS (Life Technologies, Inc., Grand Island, N.Y.). NS-398 and nimesulide (Cayman chemicals, Ann Arbor, Mich.), sulindac sulfide (Merck & Co., Rahway, N.J.) and SC-58125 (G.D. Searle Co., St. Louis, Mo.) were dissolved in DMSO prior to addition to cell culture medium. Experimental controls were treated with 0.1% DMSO.
mRNA isolation. Total cellular RNA was isolated using Tri-Reagent (Molecular Research Center, Inc., Cincinnati, Ohio) and polyadenylated RNA was isolated using a mRNA Purification Kit (Amersham Pharmacia Biotech, Inc., Piscataway, N.J.).
Suppression subtractive hybridization. SSH was performed with the PCR-Select™ cDNA Subtraction Kit (Clontech Laboratories Inc., Palo Alto, Calif.) as described by the manufacturer except for slight modifications of the PCR and hybridization conditions. Starting material consisted of 2 μg of mRNA from NS-398 treated HCA-7 cells and 2 μg of mRNA from control cells. After synthesis of the first and second cDNA strands, the cDNA was digested with Rsa I to obtain shorter, blunt-ended molecules. Then ligation of two different adapters to the cDNA fragments was performed separately. The adapter sequences were as follows: 5′-[…]-3′ (adapter 1-SEQ ID NO: 52) and 5′-[…]-3′ (adapter 2R-SEQ ID NO: 53). For the first round hybridization, the mixture of driver and tester cDNA were denatured at 98° C. for 1.5 min and then maintained at 68° C. for ˜10 h. For the second round hybridization, driver cDNA was denatured at 98° C. for 1.5 min and then added to the mixture of the two previous hybridization and allowed to incubate at 68° C. for ˜18 h.
After two rounds of hybridization, two rounds of PCR were performed to amplify the specific, differentially expressed cDNA fragments. All PCR reactions were performed using a PTC-100 thermal cycler (MJ Research, Inc. Watertown, Mass.). The primer used in first round is 5′-[…]-3′ (primer 1-SEQ ID NO: 54) and the primers used in second round were 5′-[…]-3′ (nested primer 1-SEQ ID NO: 55) and 5′-[…]-3′ (nested primer 2R -SEQ ID NO: 56). Cycling parameters are as follows: for the first round, 27 cycles of 94° C. for 30 s, 64° C. for 30 s and 71° C. for 1.5 min; for the second round, 15 cycles of 94° C. for 30 s, 68° C. for 30 s and 72° C. for 1.5 min.
To evaluate subtractive efficiency, the same amount of subtracted and unsubtracted secondary PCR products were applied as templates, and GAPDH primers were used to perform PCR. The PCR products were examined in a 2.0% agarose/EtBr gel to detect the abundance of GAPDH. After evaluation of the subtractive efficiency, the subtracted PCR products were cloned directly into the pCR2.1-TOPO vector (InVitrogen, Carlsbad, Calif.). Plates were incubated at 37° C. until small clones were visible and the blue/white staining could be clearly distinguished.
Differential screening. Differential screening was performed by using the PCR-Select™ Differential Screening Kit (Clontech) according to the users manual. After picking the recombinant clones from the subtractive library and identifying them by restriction digestion, the insert was PCR amplified in 20 μl volume reactions using nested PCR primer 1 and 2R. After amplification, 5 μl of the PCR product was denatured with 5 μl of 0.6 N NaOH and then 1.5 μl of each mixture was transferred to a nylon membrane. Each cDNA fragment was arrayed in duplicate in each blot and two identical blots were prepared for hybridization with different probes. The total secondary PCR amplified products from the forward and reverse SSH were used as probes. After washing, the membranes were exposed overnight to Kodak BioMax MR x-ray film (Eastman Kodak Company, Rochester, N.Y.) with and intensifying screen at −70° C.
Northern blotting. […]

[4] = system: HCA-7 cells; assay: HCA-7 cell growth following treatment; format: cell-based; settings: following treatment with NS-398
[5] = system: different types of cancer cell lines; settings: cited from earlier work
[6] = system: AOM induced colon carcinogenesis; settings: AOM induced colon carcinogenesis rat model; cited from earlier work
[7] = system: NNK-induced lung cancer; settings: NNK-induced lung cancer model; cited from earlier work
[8] = system: human colon carcinoma cells; settings: cited from earlier work
[9] = system: prostate carcinoma cells; settings: cited from earlier work
[10] = system: angiogenesis; settings: cited from earlier work
[11] = 100 μM NS-398 for 4 days, down = decreased levels following treatment, -fold decrease
[12] = 100 μM NS-398 for 4 days, up = increased levels following treatment, -fold increase

SMILES: CC1=C(CC(=O)O)c2cc(F)ccc2/C1=C\c1ccc([S+](C)[O-])cc1 (stereo not drawn) [sulindac, (Z)-5-Fluoro-2-methyl-1-((4(methylsulfinyl)phenyl)methylene) 1H-indene-3-acetic acid]
- Drug absorbed after oral administration [1]: about 90%
- Time to peak plasma levels ([1]; fasting patients, oral): about 2 hours
- Mild gastrointestinal effects, share of patients ([2]; abdominal pain and nausea most frequent): ~20%
- Skin rash and pruritus, share of patients ([2]; human, in vivo): 5%

SMILES: CS(=O)(=O)Nc1ccc([N+](=O)[O-])cc1OC1CCCCC1 [NS-398]
- Regulation by NS-398: Cyclin K (AF060515) [3, 11]: down (2.1) fold
- Regulation by NS-398: KIAA0101 (D14657) [3, 11]: down (2.7) fold
- Regulation by NS-398: Proliferation associated p100 protein (AF098158) [3, 11]: down (2.2) fold
- Regulation by NS-398: Dynamin 2 (NM_004945) [3, 12]: up (3.1) fold
- Regulation by NS-398: ENH, LIM protein (similar to rat protein kinase C-binding enigma) (NM_006457) [3, 12]: up (3.0) fold
- Regulation by NS-398: FAT tumor suppressor (Drosophila) homolog (NM_005245) [3, 12]: up (4.4) fold
- Regulation by NS-398: LIP.1 (LAR-interacting protein 1b) (U22816) [3, 12]: up (3.4) fold
- Regulation by NS-398: PCDH7 (BH-Pcdh) (AB06757) [3, 12]: up (26.0) fold
- Regulation by NS-398: Pdcd4 (Programmed cell death) (NM_011050) [3, 12]: up (1.5) fold
- Regulation of named genes by NS-398, stated in words ([3]; gene named in the value): genes that were down-regulated by NS-398, one was designated as NRG-1; also recorded: Cyclin K was found to be down-regulated; also recorded: Pdcd4, Dynamin 2 and LIP.1 are all up-regulated; also recorded: ENH is a LIM protein whose levels are increased
- Inhibition of HCA-7 cell growth [4]: significant inhibition
- Effect on tumor growth [5]: suppress tumor growth
- Chemopreventive effects [6]: chemopreventive effects
- Chemopreventive effects [7]: chemopreventive effects
- Induction of apoptosis [8]: induce apoptosis
- Induction of apoptosis [9]: induce apoptosis
- Anti-angiogenic effects [10]: anti-angiogenic effects
